{"source": "patent US20220331279A1", "about": "“THERAPEUTIC METHODS AND COMPOSITIONS FOR TREATING CANCER USING 6,8-BIS-BENZYLTHIO-OCTANOIC ACID AND A GLUTAMINASE INHIBITOR” (Rafael Pharmaceuticals, lnc., priority 2019, published 2022)", "origin": "cited, not measured here", "conditions": "after IV dosing; Pardee, T. S. et al., Clin. Cancer Res. 2014, 20, 5255-64", "data": [{"molecule": "O=C(O)CCCCC(CCSCc1ccccc1)SCc1ccccc1", "note": "(stereo not shown) [6,8-bis-benzylthio-octanoic acid]", "values": [{"measurement": "half-life", "result": "1 to 2", "unit": "h"}]}]}
